Patent US10030021B2, “Spirocyclic morphinans and use thereof” (Purdue Pharma L.P., priority 2014, dated 2018)

Target: T1, μ-opioid receptor (Homo sapiens, UniProt P35372)
T1 construct: purchased Perkin Elmer, Shelton, Conn
Assay: μ-opioid receptor [35S]GTPγS functional assay
Type: biochemical
Conditions: for Emax: maximal effect relative to DAMGO
Method: [^35S]GTPγS functional assays were conducted using freshly thawed μ-receptor membranes (Perkin Elmer, Shelton, Conn.). Assay reactions were prepared by sequentially adding the following reagents to binding buffer (100 mM NaCl, 10 mM MgCl2, 20 mM HEPES, pH 7.4) on ice (final concentrations indicated): membrane protein (0.026 mg/mL), saponin ([…]), GDP ([…]) and [^35S]GTPγS (0.20 nM; Perkin Elmer, Shelton, Conn.). The prepared membrane solution (190 μl/well) was transferred to 96-shallow well polypropylene plates containing 10 μl of 20× concentrated stock solutions of the agonist [D-Ala^2, N-methyl-Phe^4 Gly-ol^5]-enkephalin (DAMGO) prepared in dimethyl sulfoxide (DMSO). Plates were incubated for 30 min at about 25° C. with shaking. Reactions were terminated by rapid filtration onto 96-well Unifilter GF/B filter plates (Perkin Elmer, Shelton, Conn.) using a 96-well tissue harvester (Perkin Elmer, Shelton, Conn.) followed by three filtration washes with 200 μl of ice-cold wash buffer (10 mM NaH2PO4, 10 mM Na2HPO4, pH 7.4). Filter plates were subsequently dried at 50° C. for 2-3 hours. BetaScint scintillation cocktail (Perkin Elmer, Shelton, Conn.) was added (50 μl/well) and plates were counted using a Packard Top-Count for 1 min/well. Data were analyzed using the sigmoidal dose-response curve fitting functions in GraphPad PRISM v. 3.0, or an in-house function for non-linear, sigmoidal dose-response curve-fitting.
μ GTP EC50 is the concentration of a compound providing 50% of the maximal response for the compound at a μ-opioid receptor.
μ GTP Emax (%) is the maximal effect elicited by a compound relative to the effect elicited by DAMGO, a standard agonist. Generally, the μ GTP Emax (%) value measures the efficacy of a compound to treat or prevent pain or other Conditions.

T1 sequence (P35372 whole entry, species assumed): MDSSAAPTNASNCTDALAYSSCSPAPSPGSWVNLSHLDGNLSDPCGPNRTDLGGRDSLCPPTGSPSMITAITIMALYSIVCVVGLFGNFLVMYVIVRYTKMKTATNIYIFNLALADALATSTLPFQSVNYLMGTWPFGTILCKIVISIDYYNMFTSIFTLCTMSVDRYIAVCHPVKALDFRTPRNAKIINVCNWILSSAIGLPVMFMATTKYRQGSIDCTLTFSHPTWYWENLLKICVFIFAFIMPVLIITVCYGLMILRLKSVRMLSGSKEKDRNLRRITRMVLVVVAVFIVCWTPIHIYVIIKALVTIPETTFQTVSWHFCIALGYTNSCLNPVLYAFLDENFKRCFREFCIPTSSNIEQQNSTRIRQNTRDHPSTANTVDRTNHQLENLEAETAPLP

| SMILES | EC50 | Emax |
| --- | --- | --- |
| COc1ccc2c(c1)[C@]13CCN(C)[C@H](C2)[C@@H]1CC[C@@]1(C3)NC(=O)NC1=O [Compound 2, (4S,4b′S,8a′R,9′R)-3′-methoxy-11′-methyl-8′,8a′,9′,10′-tetrahydro-5′H,7′H-spiro[imidazolidine-4,6′-[9,4b](epiminoethano)phenanthrene]-2,5-dione] | 18 ± 1.1 µM | 75.7 ± 0.88% |
| CN(C)CCCN1CC[C@]23C[C@@]4(CC[C@@]2(O)[C@H]1Cc1ccc(O)cc13)C(=O)N(CC1CC1)C(=O)N4CC1CC1 [Compound 28, (4S,4b′R,8a′S,9′R)-1,3-bis(cyclopropylmethyl)-11′-(3-(dimethylamino)propyl)-3′,8a′-dihydroxy-8′,8a′,9′,10′-tetrahydro-5′H,7′H-spiro[imidazolidine-4,6′-[9,4b](epiminoethano)-phenanthrene]-2,5-dione] | > 20 µM | 1.36% |
| O=C1N(CC2CC2)C(=O)[C@@]2(CC[C@@]3(O)[C@H]4Cc5ccc(O)cc5[C@@]3(CCN4)C2)N1CC1CC1 [Compound 23, (4S,4b′R,8a′S,9′R)-1,3-bis(cyclopropylmethyl)-3′,8a′-dihydroxy-8′,8a′,9′,10′-tetrahydro-5′H,7′H-spiro[imidazolidine-4,6′-[9,4b](epiminoethano)phenanthrene]-2,5-dione] | 3.79 ± 0.287 µM | 15.7 ± 0.33% |
| O=C1NC(=O)[C@@]2(CC[C@@]3(O)[C@H]4Cc5ccc(O)cc5[C@@]3(CCN4)C2)N1 [Compound 22, (4S,4b′R,8a′S,9′R)-3′,8a′-dihydroxy-8′,8a′,9′,10′-tetrahydro-5′H,7′H-spiro[imidazolidine-4,6′-[9,4b](epiminoethano)phenanthrene]-2,5-dione] | 2.85 ± 0.216 µM | 71.7 ± 2.6% |
| CCN1C(=O)N(CC)[C@]2(CC[C@@]3(O)[C@H]4Cc5ccc(O)cc5[C@@]3(CCN4CCc3ccccc3)C2)C1=O [Compound 24, (4S,4b′R,8a′S,9′R)-1,3-diethyl-3′,8a′-dihydroxy-11′-phenethyl-8′,8a′,9′,10′-tetrahydro-5′H,7′H-spiro[imidazolidine-4,6′-[9,4b](epiminoethano)phenanthrene]-2,5-dione] | 0.073 ± 0.0197 µM | 65.3 ± 4.26% |
| CN(C)CCCN1CC[C@]23C[C@]4(CC[C@@]2(O)[C@H]1Cc1ccc(O)cc13)NC(=O)NC4=O [Compound 30, (4S,4b′R,8a′S,9′R)-11′-(3-(dimethylamino)propyl)-3′,8a′-dihydroxy-8′,8a′,9′,10′-tetrahydro-5′H,7′H-spiro[imidazolidine-4,6′-[9,4b](epiminoethano)phenanthrene]-2,5-dione] | > 20 µM | 1% |
| CN(C)CCN1CC[C@]23C[C@]4(CC[C@@]2(O)[C@H]1Cc1ccc(O)cc13)NC(=O)NC4=O [Compound 29, (4S,4b′R,8a′S,9′R)-11′-(2-(dimethylamino)ethyl)-3′,8a′-dihydroxy-8′,8a′,9′,10′-tetrahydro-5′H,7′H-spiro[imidazolidine-4,6′-[9,4b](epiminoethano)phenanthrene]-2,5-dione] | 3.92 ± 0.571 µM | 23.4 ± 1.68% |
| COc1ccc2c(c1)[C@]13CCN(CCCN(C)C)[C@H](C2)[C@]1(O)CC[C@@]1(C3)NC(=O)NC1=O [Compound 4, (4S,4b′R,8a′S,9′R)-11′-(3-(dimethylamino)propyl)-8a′-hydroxy-3′-methoxy-8′,8a′,9′,10′-tetrahydro-5′H,7′H-spiro[imidazolidine-4,6′-[9,4b](epiminoethano)phenanthrene]-2,5-dione] | > 20 µM | -1 ± 0.003% |
| COc1ccc2c(c1)[C@]13CCN[C@H](C2)[C@]1(O)CC[C@]1(C3)C(=O)N(CC2CC2)C(=O)N1CC1CC1 [Compound 17, (4S,4b′R,8a′S,9′R)-1,3-bis(cyclopropylmethyl)-8a′-hydroxy-3′-methoxy-8′,8a′,9′,10′-tetrahydro-5′H,7′H-spiro[imidazolidine-4,6′-[9,4b](epiminoethano)phenanthrene]-2,5-dione] | > 20 µM | 26 ± 5.51% |
| CN1CC[C@]23C[C@]4(CC[C@H]2[C@H]1Cc1ccc(O)cc13)NC(=O)NC4=O [Compound 19, (4S,4b′S,8a′R,9′R)-3′-hydroxy-11′-methyl-8′,8a′,9′,10′-tetrahydro-5′H,7′H-spiro[imidazolidine-4,6′-[9,4b](epiminoethano)phenanthrene]-2,5-dione] | 0.097 ± 0.0115 µM | 54.6 ± 3.04% |
| CCN1C(=O)N(CC)[C@]2(CC[C@@]3(O)[C@H]4Cc5ccc(OC)cc5[C@@]3(CCN4CCN(C)C)C2)C1=O [Compound 8, (4S,4b′R,8a′S,9′R)-11′-(2-(dimethylamino)ethyl)-1,3-diethyl-8a′-hydroxy-3′-methoxy-8′,8a′,9′,10′-tetrahydro-5′H,7′H-spiro[imidazolidine-4,6′-[9,4b](epiminoethano)phenanthrene]-2,5-dione] | > 20 µM | 1% |
| CCN1C(=O)N(CC)[C@]2(CC[C@@]3(O)[C@H]4Cc5ccc(C#N)cc5[C@@]3(CCN4C)C2)C1=O [Compound 32, (4S,4b′R,8a′S,9′R)-1,3-diethyl-8a′-hydroxy-11′-methyl-2,5-dioxo-8′,8a′,9′,10′-tetrahydro-5′H,7′H-spiro[imidazolidine-4,6′-[9,4b](epiminoethano)phenanthrene]-3′-carbonitrile] | > 20 µM | 16.3 ± 1.76% |
| COc1ccc2c(c1)[C@]13CCN(CCN(C)C)[C@H](C2)[C@]1(O)CC[C@@]1(C3)NC(=O)NC1=O [Compound 3, (4S,4b′R,8a′S,9′R)-11′-(2-(dimethylamino)ethyl)-8a′-hydroxy-3′-methoxy-8′,8a′,9′,10′-tetrahydro-5′H,7′H-spiro[imidazolidine-4,6′-[9,4b](epiminoethano)phenanthrene]-2,5-dione] | > 20 µM | -0.8% |
| CCN1C(=O)N(CC)[C@]2(CC[C@@]3(O)[C@H]4Cc5ccc(OC)cc5[C@@]3(CCN4)C2)C1=O [Compound 18, (4S,4b′R,8a′S,9′R)-1,3-diethyl-8a′-hydroxy-3′-methoxy-8′,8a′,9′,10′-tetrahydro-5′H,7′H-spiro[imidazolidine-4,6′-[9,4b](epiminoethano)phenanthrene]-2,5-dione] | > 20 µM | 35.7 ± 1.2% |
| COc1ccc2c(c1)[C@]13CCN(CCCN(C)C)[C@H](C2)[C@]1(O)CC[C@]1(C3)C(=O)N(CC2CC2)C(=O)N1CC1CC1 [Compound 13, (4S,4b′R,8a′S,9′R)-1,3-bis(cyclopropylmethyl)-11′-(3-(dimethylamino)propyl)-8a′-hydroxy-3′-methoxy-8′,8a′,9′,10′-tetrahydro-5′H,7′H-spiro[imidazolidine-4,6′-[9,4b]-(epiminoethano)phenanthrene]-2,5-dione] | > 20 µM | 1% |
| CCN1C(=O)N(CC)[C@]2(CC[C@@]3(O)[C@H]4Cc5ccc(/C(N)=N\O)cc5[C@@]3(CCN4C)C2)C1=O [Compound 34, (4S,4b′R,8a′S,9′R,E)-1,3-diethyl-N′,8a′-dihydroxy-11′-methyl-2,5-dioxo-8′,8a′,9′,10′-tetrahydro-5′H,7′H-spiro[imidazolidine-4,6′-[9,4b](epiminoethano)phenanthrene]-3′-carboximidamide] | 17.2 ± 1.2 µM | 29.7 ± 1.18% |
| CCN1C(=O)N(CC)[C@]2(CC[C@@]3(O)[C@H]4Cc5ccc(O)cc5[C@@]3(CCN4CCN(C)C)C2)C1=O [Compound 26, (4S,4b′R,8a′S,9′R)-11′-(2-(dimethylamino)ethyl)-1,3-diethyl-3′,8a′-dihydroxy-8′,8a′,9′,10′-tetrahydro-5′H,7′H-spiro[imidazolidine-4,6′-[9,4b](epiminoethano)phenanthrene]-2,5-dione] | > 20 µM | 0.5% |
| CCN1C(=O)N(CC)[C@]2(CC[C@@]3(O)[C@H]4Cc5ccc(O)cc5[C@@]3(CCN4)C2)C1=O [Compound 20, (4S,4b′R,8a′S,9′R)-1,3-diethyl-3′,8a′-dihydroxy-8′,8a′,9′,10′-tetrahydro-5′H,7′H-spiro[imidazolidine-4,6′-[9,4b](epiminoethano)phenanthrene]-2,5-dione] | 1.88 ± 0.252 µM | 28 ± 1.53% |
| CCN1C(=O)N(CC)[C@]2(CC[C@@]3(O)[C@H]4Cc5ccc(C(N)=O)cc5[C@@]3(CCN4C)C2)C1=O [Compound 33, (4S,4b′R,8a′S,9′R)-1,3-diethyl-8a′-hydroxy-11′-methyl-2,5-dioxo-8′,8a′,9′,10′-tetrahydro-5′H,7′H-spiro[imidazolidine-4,6′-[9,4b](epiminoethano)phenanthrene]-3′-carboxamide] | 0.974 ± 0.117 µM | 39.3 ± 1.78% |
| CCN1C(=O)N(CC)[C@]2(CC[C@@]3(O)[C@H]4Cc5ccc(OC)cc5[C@@]3(CCN4CCCN(C)C)C2)C1=O [Compound 14, (4S,4b′R,8a′S,9′R)-11′-(3-(dimethylamino)propyl)-1,3-diethyl-8a′-hydroxy-3′-methoxy-8′,8a′,9′,10′-tetrahydro-5′H,7′H-spiro[imidazolidine-4,6′-[9,4b](epiminoethano)-phenanthrene]-2,5-dione] | > 20 µM | 1% |
